Tests used:
[1] = target: T1, tyrosinase (Agaricus bisporus, UniProt C7FF04); experiment: Enzyme kinetic analysis of tyrosinase with L-tyrosine (Lineweaver-Burk, Dixon plots); format: biochemical; details: substrate L-tyrosine
Procedure: (§1) Enzyme kinetics were analyzed using Lineweaver–Burk and Dixon reciprocal plots of the reaction rate and substrate concentration to evaluate the effect of the sample on the affinity of the substrate and enzyme. The tyrosinase concentration was kept constant at 200 U/mL, whereas the substrate (L-tyrosine/L-DOPA) concentration varied between 0.5 and 2.0 mM. The reaction was similar to the anti-tyrosinase assay described above; 100 µL of sample solution was added, followed by 100 µL of tyrosinase (200 units/mL) after incubation at 25 °C. The substrate was then added to the wells and mixed thoroughly, and kinetic measurements of the solution were performed at a wavelength of 475 nm.

[2] = tested on: tyrosinase; design: method as in Deri et al. (2016) [15]; details: ref Deri et al. (2016) [15], cited from earlier work
[3] = tested on: B16F10 cells; experiment: Cellular tyrosinase activity (L-DOPA oxidation) in α-MSH-induced cells; format: cell-based, Murine; details: for Intracellular tyrosinase activity: α-MSH-induced B16F10 cells
Procedure: Tyrosinase activity was estimated by measuring the rate of L-DOPA oxidation. […] The cells were washed with cold PBS, and cell lysis buffer was added for lysis at 4 °C for 1 h on ice and centrifuged at 13,000 rpm for 20 min at […] to obtain supernatants. Protein concentration was quantified at 50 µg using a BCA protein assay kit. […] Absorbance was measured at 490 nm using a microplate reader.

[4] = tested on: B16F10 melanoma cells; experiment: Cell viability, CCK-8 assay; format: cell-based, Murine; details: 0.1–5 μM, 72 h
Procedure: Murine B16F10 melanoma cells (Korean Cell Line Bank, Seoul, Republic of Korea) were cultured in DMEM containing 10% FBS and 1% penicillin-streptomycin at 37 °C in the humidified atmosphere of a 5% CO2 incubator. The cells were cultured until 100% confluent for all experiments.
Cell viability was assessed using the CCK-8 kit. Cells were incubated in 96-well plates at a density of approximately 3 × 10^3 cells/well. After 24 h incubation, a kuraridin concentration (0.1–10 µM) of samples or medium was added to B16F10 cells at 72 h of incubation. Absorbance was monitored at 450 nm using a microplate reader (Synergy H(1), Biotek, VT, USA).

[5] = target: T1, tyrosinase; experiment: Enzyme kinetic analysis of tyrosinase with L-DOPA (Lineweaver-Burk, Dixon plots); format: biochemical; details: substrate L-DOPA
Procedure: as §1

[6] = tested on: B16F10 melanoma cells; experiment: Cellular melanin content (extracellular and intracellular) in α-MSH-induced cells; format: cell-based, Murine
Procedure: B16F10 melanoma cells (7.4 × 10⁴ cells/well) were seeded in a 6-well plate. […] The extracellular melanin content was measured by direct estimation of the absorbance of the cell-free culture medium at 405 nm. For the measurement of intracellular melanin content, cell pellets were dissolved in 1 N NaOH at 95 °C for 1 h. The absorbance of the resulting solution was measured at 405 nm using a microplate reader [Synergy H(1)].

[7] = α-MSH-induced B16F10 cells, 0.1–5 μM, dose-dependent
[8] = B16F10 cells, α-MSH stimulation 0.1 μM, 72 h, control = 100%

T1 sequence (G1K3P4 entry or part of it): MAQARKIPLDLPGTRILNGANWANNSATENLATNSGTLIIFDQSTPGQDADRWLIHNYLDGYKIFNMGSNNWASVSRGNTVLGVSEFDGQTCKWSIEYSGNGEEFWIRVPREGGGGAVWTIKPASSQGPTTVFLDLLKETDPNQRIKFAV
T1 sequence (C7FF04 2-392): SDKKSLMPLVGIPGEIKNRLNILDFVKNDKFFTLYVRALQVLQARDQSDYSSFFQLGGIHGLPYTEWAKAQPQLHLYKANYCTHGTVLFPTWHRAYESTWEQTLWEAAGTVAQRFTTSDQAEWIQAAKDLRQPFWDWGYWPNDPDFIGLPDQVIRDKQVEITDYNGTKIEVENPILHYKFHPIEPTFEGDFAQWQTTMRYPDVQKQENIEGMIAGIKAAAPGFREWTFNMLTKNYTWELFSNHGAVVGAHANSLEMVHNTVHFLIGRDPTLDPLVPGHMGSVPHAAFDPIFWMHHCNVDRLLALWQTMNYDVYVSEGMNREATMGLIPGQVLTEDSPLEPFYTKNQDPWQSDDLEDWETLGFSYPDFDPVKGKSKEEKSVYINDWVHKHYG

In the case of C=C(C)[C@H](CCC(C)(C)O)Cc1c(O)cc(OC)c2c1O[C@H](c1ccc(O)cc1O)CC2=O [Kurarinol, kurarinol], the “Inhibition Type L-Tyrosine” value [1] is reported as “Non-competitive”.

For O=c1cc(CO)occ1O [Kojic acid], the “Inhibition Type L-DOPA” value ([2]; substrate L-DOPA) is listed as “Mixed ^2” and the “Inhibition Type L-Tyrosine” value ([2]; substrate L-tyrosine) is listed as “Mixed ^2”.

For C=C(C)[C@H](CC=C(C)C)Cc1c(O)cc(O)c2c1O[C@H](c1ccccc1O)CC2=O [Kushenol A, kushenol A], the “Inhibition Type L-Tyrosine” value [1] was “Non-competitive”.

In the case of C=C(C)[C@H](CC=C(C)C)Cc1c(O)cc(OC)c(C(=O)/C=C/c2ccc(O)cc2O)c1O [Kuraridin, kuraridin], the Intracellular tyrosinase activity ([3]; all tested concentrations (0.1–5 μM), vs α-MSH only, p < 0.001) is reported as “significantly suppressed tyrosinase activity”, the Intracellular tyrosinase activity ([3]; lowest concentration 0.1 μM) is reported as “reached control levels” and the “Cytotoxicity (cell viability)” value [4] is reported as “without cytotoxicity”. For the same compound, the “Inhibition Type L-Tyrosine” value [1] was “Non-competitive”, the “Inhibition Type L-DOPA” value [5] was “Competitive” and the “Inhibition Type L-DOPA” value ([5]; listed as kuraridin) was “competitive inhibition”. For the same compound, the Extracellular melanin production [6, 7] was “significantly attenuated”, the Intracellular melanin production [6, 7] was “significantly attenuated” and the “Intracellular melanin content lower than the untreated control” value ([6]; α-MSH-treated B16F10 cells, 1 µM) was 15%.

With “alpha-melanocyte-stimulating hormone [α-MSH, reference compound]” the “Increase of intracellular tyrosinase activity compared with control group” value ([3]; B16F10 cells, α-MSH 100 nM, 72 h) was 1.8 fold, the Extracellular melanin content [6, 8] was “approximately 132%” and the Intracellular melanin content [6, 8] was ~127%.

— article PMC11509080, “Discovery of Kuraridin as a Potential Natural Anti-Melanogenic Agent: Focusing on Specific Target Genes and Multidirectional Signaling Pathways” (International Journal of Molecular Sciences, 2024)
